{"source": "paper PMC11849073", "about": "“Specific recognition mechanism of an antibody to sulfated tyrosine and its potential use in biological research” (The Journal of Biological Chemistry, 2025)", "key": {"[1]": {"system": "YU2 (CCR5 tropic strain) strain in TZM-bl cells", "assay": "Pseudoviral assay (single-round viral infective assay) in TZM-bl cells", "format": "cell-based, HIV", "conditions": "48 h post-infection, luciferase read-out, BA8 up to 50 μg/ml (approximately 350 nM)", "procedure": "Subsequently, we conducted a pseudoviral test using TZM-bl cells.\nThe anti-HIV activity of BA8, isotype control antibody, and Maraviroc (Sigma-Aldrich) in a single-round viral infective assay against the YU2 (CCR5 tropic strain) strain in TZM-bl cells. At 48 h post-infection, cells were lysed, and relative light units were measured using a Steady-Glo luciferase assay system and GloMax Discover microplate reader (Promega)."}, "BA8 Fab [2]": {"target": "BA8 Fab", "assay": "ITC analysis of sulfated, non-sulfated and partially sulfated CCR5 N-terminal peptides with BA8", "format": "binding, rabbit", "conditions": "PBS; for Kd / ΔH: 10 μM BA8 Fab in cell, 100 μM peptide in syringe, 25 °C", "text": "To determine the thermodynamic parameters accompanying the interaction, we performed an ITC analysis (Fig. 2B, Table 2).\n(§1) We prepared these partially sulfated peptides and analyzed their interactions with BA8 using SPR and ITC (Fig. 4, B and C, Tables 3 and 4). […] These findings indicate that sulfation at 7Tys is essential for BA8 recognition. […] Thus, the high specificity and affinity of BA8 for the sulfated CCR5 N-terminal peptide likely rely heavily on the sulfation at 7Tys and 8Tys. […] In other words, BA8 recognizes not only sulfation of the N-terminal peptide of CCR5, but it is also selective about the sulfation site.\nThe ITC experiments were performed using a MicroCal PEAQ-ITC (Malvern Panalytical, Malvern, UK). The BA8 Fab fragment antibody, sufficiently dialyzed in PBS, was adjusted to 10 μM for the cells, and the CCR5 N-terminal peptide, dissolved in the dialysate, was adjusted to 100 μM for the syringe. The first injection of 0.5 μl (omitted from the analysis) was followed by 19 injections of 2 μl with 120 s intervals at a constant temperature of 25 °C. The titration syringe was continuously stirred at 750 rpm.\nThe baselines were smoothly adjusted for the step after each titration saturated and fitted as one set of sites binding in MicroCal PEAQ-ITC Analysis Software (Malvern Panalytical, Malvern, UK)."}, "BA8 Fab [3]": {"system": "BA8 Fab", "assay": "SPR analysis of sulfated, non-sulfated and partially sulfated CCR5 N-terminal peptides with BA8", "format": "binding, rabbit", "conditions": "for kon: SPR Biacore 8K, BA8 Fab immobilized on CM5 chip, PBS 0.005% Tween 20, global fitting; for kon / Kd / koff: partially sulfated peptide as analyte; for Kd / koff / binding of peptide to BA8 in SPR, in words: SPR, BA8 Fab immobilized; for binding of peptide to BA8 in SPR, in words: peptides 2 to 162 nM as analyte (statements of b30 and b31 cover SPR and ITC)", "text": "To quantitatively evaluate the intermolecular interaction between BA8 and the sulfated N-terminal peptide of CCR5, we prepared a Fab fragment of BA8 as a recombinant protein (Fig. S2, A and B) and conducted kinetic interaction analysis using SPR. The Fab was immobilized on a sensor chip using amine coupling, and the synthesized sulfated and non-sulfated N-terminal peptides of CCR5 were used as the analytes.\nas §1\nThe bindings of the peptides to Fabs were analyzed using a Biacore 8K instrument (Cytiva). Each Fab was immobilized on the surface of a CM5 sensor chip (Cytiva) by the amine-coupling method according to the manufacturer’s instructions in the condition of pH 5.5. The immobilization level reached to about 3000 Response Unit (RU). PBS containing 0.005% Tween 20 was used as the running buffer. The kinetic data were obtained by injection of increasing concentrations of peptides into the sensor chip. The flow rate of the analyte were set to 30 μl/min. The data were analyzed using BIAevaluation software (Cytiva), and the binding affinity as well as kinetic parameters were calculated by a global fitting of the curves."}, "BA8 Fab [4]": {"system": "BA8 Fab", "assay": "DSF stabilizing effect of peptides on BA8", "design": "species or system rabbit", "conditions": "BA8 Fab before and after binding of peptide (solution after ITC)", "method": "To assess the effect of sulfated peptide binding on the thermal stability of BA8, we performed differential scanning fluorimetry (DSF) measurements (Fig. 2C) ([25]). The melting temperature (Tm) of BA8 forming a complex with the sulfated peptide was 75.6 °C, whereas the pre-binding Tm was 70.8 °C.\nThe stabilization effect of the addition of these partially sulfated peptides on BA8 was evaluated using DSF measurements (Fig. S8).\nThe DSF thermal stability measurements were performed using a CFX Real-Time PCR System (Bio-Rad). First, 1 μl of 100 × SYPRO Orange stain was diluted with 19 μl of 8.3 μM unbound-BA8 Fab or the solution remaining in the cell after ITC measurement. Next, fluorescence was scanned every minute to obtain melting curves of the solutions as they were heated at 1.0 °C/min. The change in the scanned relative fluorescence unit per unit time was recorded, and the temperature at its peak was considered to be the melting temperature (Tm) ([42])."}, "[5]": {"target": "full-length CCR5-FLAG co-expressed with TPST2 in HEK293 cells (C2 cells), sulfated by TPST2 (UniProt P51681)", "sequence (P51681 whole entry)": "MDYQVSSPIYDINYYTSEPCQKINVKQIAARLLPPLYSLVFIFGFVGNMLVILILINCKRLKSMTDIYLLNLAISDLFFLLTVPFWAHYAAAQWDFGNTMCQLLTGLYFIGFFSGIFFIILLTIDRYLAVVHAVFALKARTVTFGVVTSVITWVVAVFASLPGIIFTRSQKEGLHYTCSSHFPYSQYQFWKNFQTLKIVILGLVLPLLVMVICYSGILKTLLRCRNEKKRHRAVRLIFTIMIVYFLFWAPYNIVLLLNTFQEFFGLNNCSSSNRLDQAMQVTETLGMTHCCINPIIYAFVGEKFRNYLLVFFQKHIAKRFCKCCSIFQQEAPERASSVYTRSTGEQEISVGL", "assay": "flow cytometry on cells; transfected HEK293 cells (C, C1, C2, C12) or TZM-bl cells fixed with 2% paraformaldehyde; BA8 IgG detected with goat anti-rabbit IgG Alexa 488; median fluorescence against BA8 concentration fitted with a sigmoid function"}, "[6]": {"target": "endogenous CCR5 expressed on TZM-bl cells (human (endogenous in TZM-bl)) (UniProt P51681)", "sequence (P51681 whole entry)": "as above", "assay": "flow cytometry on cells; transfected HEK293 cells (C, C1, C2, C12) or TZM-bl cells fixed with 2% paraformaldehyde; BA8 IgG detected with goat anti-rabbit IgG Alexa 488; median fluorescence against BA8 concentration fitted with a sigmoid function"}, "[7]": {"target": "full-length CCR5-FLAG co-expressed with TPST1 and TPST2 in HEK293 cells (C12 cells), sulfated by TPST2 (UniProt P51681)", "sequence (P51681 whole entry)": "as above", "assay": "flow cytometry on cells; transfected HEK293 cells (C, C1, C2, C12) or TZM-bl cells fixed with 2% paraformaldehyde; BA8 IgG detected with goat anti-rabbit IgG Alexa 488; median fluorescence against BA8 concentration fitted with a sigmoid function"}}, "note": "“Also recorded” adds a separate entry of the source. Where no end group is shown, it is not given here. [ ]: non-standard residue; d: D form. sY = N[C@@H](Cc1ccc(OS(=O)(=O)O)cc1)C(=O)O"}
{"molecule": "Maraviroc [reference compound]", "values": [{"measurement": "inhibition of HIV infection, in words", "setting": "[1]", "value": "inhibited HIV infection; also recorded: concentration-dependent inhibition of viral infection"}]}
{"molecule": "TYS3,7: partially sulfated CCR5 N-terminal peptide containing 3Tys and 7Tys (PI[sY]DIN[sY]YTSE; UniProt P51681 8-18, looked up, fragment)", "values": [{"measurement": "Kd", "setting": "BA8 Fab [2]", "value": 7.65, "unit": "nM"}, {"measurement": "ΔH", "setting": "BA8 Fab [2]", "value": -15.8, "unit": "kcal/mol"}, {"measurement": "ΔG", "setting": "BA8 Fab [2]; 10 μM BA8 Fab, 100 μM peptide", "value": -11.1, "unit": "kcal/mol"}, {"measurement": "−TΔS", "setting": "BA8 Fab [2]; 10 μM BA8 Fab, 100 μM peptide", "value": 4.68, "unit": "kcal/mol"}, {"measurement": "kon", "setting": "BA8 Fab [3]", "value": 265000, "unit": "mol/L/s"}, {"measurement": "Kd", "setting": "BA8 Fab [3]", "value": 45, "unit": "nM"}, {"measurement": "koff", "setting": "BA8 Fab [3]", "value": 0.0119, "unit": "s⁻¹"}, {"measurement": "binding of peptide to BA8 in SPR, in words", "setting": "BA8 Fab [3]", "value": "weak binding"}, {"measurement": "binding of peptide to BA8 in SPR, in words", "setting": "BA8 Fab [3]; listed as TYS37", "value": "bound"}, {"measurement": "effect of the peptide on the thermal stability (Tm) of BA8, in words", "setting": "BA8 Fab [4]", "value": "lower than those of TYS3,7,8"}, {"measurement": "effect of the peptide on the thermal stability (Tm) of BA8, in words", "setting": "BA8 Fab [4]; listed as TYS37", "value": "contribute to the stabilization of BA8"}]}
{"molecule": "TYS3,8: partially sulfated CCR5 N-terminal peptide containing 3Tys and 8Tys (PI[sY]DINY[sY]TSE; UniProt P51681 8-18, looked up, fragment)", "values": [{"measurement": "binding of peptide to BA8 in SPR, in words", "setting": "BA8 Fab [3]", "value": "did not exhibit binding"}, {"measurement": "binding of peptide to BA8 in SPR, in words", "setting": "BA8 Fab [3]; listed as TYS38", "value": "no binding"}, {"measurement": "effect of the peptide on the thermal stability (Tm) of BA8, in words", "setting": "BA8 Fab [4]", "value": "did not change the thermal stability of BA8 at all"}]}
{"molecule": "TYS3: partially sulfated CCR5 N-terminal peptide containing 3Tys (PI[sY]DINYYTSE; UniProt P51681 8-18, looked up, fragment)", "values": [{"measurement": "binding of peptide to BA8 in SPR, in words", "setting": "BA8 Fab [3]", "value": "no binding; also recorded: did not exhibit binding"}, {"measurement": "effect of the peptide on the thermal stability (Tm) of BA8, in words", "setting": "BA8 Fab [4]", "value": "did not change the thermal stability of BA8 at all"}]}
{"molecule": "TYS7: partially sulfated CCR5 N-terminal peptide containing 7Tys (PIYDIN[sY]YTSE; UniProt P51681 8-18, looked up, fragment)", "values": [{"measurement": "Kd", "setting": "BA8 Fab [2]", "value": 13.4, "unit": "nM"}, {"measurement": "ΔH", "setting": "BA8 Fab [2]", "value": -14.9, "unit": "kcal/mol"}, {"measurement": "ΔG", "setting": "BA8 Fab [2]; 10 μM BA8 Fab, 100 μM peptide", "value": -10.7, "unit": "kcal/mol"}, {"measurement": "−TΔS", "setting": "BA8 Fab [2]; 10 μM BA8 Fab, 100 μM peptide", "value": 4.21, "unit": "kcal/mol"}, {"measurement": "kon", "setting": "BA8 Fab [3]", "value": 228000, "unit": "mol/L/s"}, {"measurement": "Kd", "setting": "BA8 Fab [3]", "value": 67.8, "unit": "nM"}, {"measurement": "koff", "setting": "BA8 Fab [3]", "value": 0.0154, "unit": "s⁻¹"}, {"measurement": "binding of peptide to BA8 in SPR, in words", "setting": "BA8 Fab [3]", "value": "bound; also recorded: weak binding"}, {"measurement": "effect of the peptide on the thermal stability (Tm) of BA8, in words", "setting": "BA8 Fab [4]", "value": "contribute to the stabilization of BA8; also recorded: lower than those of TYS3,7,8"}]}
{"molecule": "sulfated peptide: CCR5 N-terminal peptide Pro8 to Ser18 with sulfated Tyr10, Tyr14, and Tyr15; fully sulfated (PI[sY]DIN[sY][sY]TSE; UniProt P51681 8-18, looked up, fragment)", "values": [{"measurement": "binding of peptide to BA8 in ITC, in words", "setting": "BA8 Fab [2]; 10 μM BA8 Fab, 100 μM peptide", "value": "so high that it could not be accurately measured"}, {"measurement": "binding of peptide to BA8 in SPR, in words", "setting": "BA8 Fab [3]", "value": "high binding affinity in the nanomolar range"}]}
{"molecule": "BA8 full-length IgG (recombinant, rabbit IgG Fc) (antibody, V domains shown) VH: QSLEESGGGLFKPTDTLTLTCTVSGFSLSSYSIRWVRQAPGNGLEWIGAIGSGGNAYYTSWAKSRSTITRNTNENTVTLKMTSLTVADTATYFCARGGINFGIWGPGTLVTVSS VL: AAVLTQTPSPVSAAVGSTVTINCQSSQSVYSKNWLSWFQQKPGQPPKQLIYSASTLDSGVPSRFSGSGSGTQFTLTISGVQCDDAATYYCQGTYGDASAFGGGTEVVVK", "values": [{"measurement": "EC50", "setting": "[5]", "value": 3.64, "unit": "nM"}, {"measurement": "EC50", "setting": "[6]", "value": 49, "unit": "nM"}, {"measurement": "EC50", "setting": "[7]", "value": 3.71, "unit": "nM"}]}
